Laboratory results from patent US20240092784A1, “CONDENSED HETEROCYCLIC COMPOUND” (NISSAN CHEMICAL CORPORATION, priority 2020, published 2024).

Biological target: human SPR (Homo sapiens (Human), UniProt P35270)
Test: Evaluation Example 2: Measurement of human SPR inhibitory activity (seven concentrations, sepiapterin absorbance at 420 nm)
Format: biochemical
Details: Evaluation Example 2, seven concentrations 0.14 nM to 100 nM, 240 minutes at room temperature, read-out: IC50
Outline: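 His-tagged full-length human SPR (1-261) was expressed in E. coli and the tag removed. Enzyme at 150 ng/mL in 100 mM Tris-HCl pH 7.5/0.01% BSA was mixed with compound (0.14–100 nM, seven points), 120 μM sepiapterin and 160 μM NADPH, both as added-solution concentrations. After 240 min at room temperature, remaining sepiapterin was read at 420 nm to give percent inhibition.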

Chain of human SPR (P35270 whole entry): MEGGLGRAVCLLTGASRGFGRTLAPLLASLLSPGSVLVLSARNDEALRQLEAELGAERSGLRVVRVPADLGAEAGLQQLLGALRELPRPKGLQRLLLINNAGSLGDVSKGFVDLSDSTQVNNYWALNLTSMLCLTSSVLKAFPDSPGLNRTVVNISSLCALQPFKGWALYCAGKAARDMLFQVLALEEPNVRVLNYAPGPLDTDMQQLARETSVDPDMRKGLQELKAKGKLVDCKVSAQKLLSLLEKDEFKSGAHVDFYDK

`Cc1nn2c(O)c(C(=O)NC3CC3)c(=O)n(CC(C)C)c2c1/C=C/C(=O)N1C[C@H]2COC[C@H]2C1` [Synthesis Example 628, N-Cyclopropyl-7-hydroxy-4-isobutyl-2-methyl-5-oxo-3-((E)-3-oxo-3-((3aR,6aS)-tetrahydro-1H-furo[3,4-c]pyrrol-5(3H)-yl)prop-1-en-1-yl)-4,5-dihydropyrazolo[1,5-a]pyrimidine-6-carboxamide] and `Cc1nn2c(O)c(C(=O)NC3CC3)c(=O)n(CC(C)C)c2c1/C=C/C(=O)N1C[C@@H](F)[C@@H](F)C1` [Synthesis Example 648, N-Cyclopropyl-3-((E)-3-(cis-3,4-difluoropyrrolidin-1-yl)-3-oxoprop-1-en-1-yl)-7-hydroxy-4-isobutyl-2-methyl-5-oxo-4,5-dihydropyrazolo[1,5-a]pyrimidine-6-carboxamide] are within 1.5-fold of each other in IC50: 0.84 nM for the first, 0.74 nM for the second.

`Cc1nn2c(O)c(C(=O)NC3CC3)c(=O)n(CC(C)C)c2c1/C=C/C(=O)N1CCC[C@@H]1C(C)C` [Synthesis Example 629, (R,E)-N-Cyclopropyl-7-hydroxy-4-isobutyl-3-(3-(2-isopropylpyrrolidin-1-yl)-3-oxoprop-1-en-1-yl)-2-methyl-5-oxo-4,5-dihydropyrazolo[1,5-a]pyrimidine-6-carboxamide] and `Cc1nn2c(O)c(C(=O)NC3CC3)c(=O)n(CC(C)C)c2c1/C=C/C(=O)N1CCC[C@H]1C(C)C` [Synthesis Example 630, (S,E)-N-Cyclopropyl-7-hydroxy-4-isobutyl-3-(3-(2-isopropylpyrrolidin-1-yl)-3-oxoprop-1-en-1-yl)-2-methyl-5-oxo-4,5-dihydropyrazolo[1,5-a]pyrimidine-6-carboxamide] are within 1.5-fold of each other in IC50: 1.14 nM for the first, 1.24 nM for the second.

Going from `Cc1nn2c(O)c(C(=O)NC3CC3)c(=O)n(CC(C)C)c2c1/C=C/C(=O)N1CCCC12CCOCC2` [Synthesis Example 631, (E)-N-Cyclopropyl-7-hydroxy-4-isobutyl-2-methyl-5-oxo-3-(3-oxo-3-(8-oxa-1-azaspiro[4.5]decan-1-yl)prop-1-en-1-yl)-4,5-dihydropyrazolo[1,5-a]pyrimidine-6-carboxamide] to `CC[C@H]1CCCN1C(=O)/C=C/c1c(C)nn2c(O)c(C(=O)NC3CC3)c(=O)n(CC(C)C)c12` [Synthesis Example 640, (S,E)-N-Cyclopropyl-3-(3-(2-ethylpyrrolidin-1-yl)-3-oxoprop-1-en-1-yl)-7-hydroxy-4-isobutyl-2-methyl-5-oxo-4,5-dihydropyrazolo[1,5-a]pyrimidine-6-carboxamide], the IC50 rises from 0.66 nM to 1.16 nM (1.8-fold).

`Cc1nn2c(O)c(C(=O)NC3CC3)c(=O)n(CC(C)C)c2c1/C=C/C(=O)N1CCC[C@@H]1C(F)F` [Synthesis Example 632, (R,E)-N-Cyclopropyl-3-(3-(2-(difluoromethyl)pyrrolidin-1-yl)-3-oxoprop-1-en-1-yl)-7-hydroxy-4-isobutyl-2-methyl-5-oxo-4,5-dihydropyrazolo[1,5-a]pyrimidine-6-carboxamide] and `Cc1nn2c(O)c(C(=O)NC3CC3)c(=O)n(CC(C)C)c2c1/C=C/C(=O)N1CCC[C@H]1C(F)F` [Synthesis Example 634, (S,E)-N-Cyclopropyl-3-(3-(2-(difluoromethyl)pyrrolidin-1-yl)-3-oxoprop-1-en-1-yl)-7-hydroxy-4-isobutyl-2-methyl-5-oxo-4,5-dihydropyrazolo[1,5-a]pyrimidine-6-carboxamide] are within 1.5-fold of each other in IC50: 1.51 nM for the first, 1.21 nM for the second.

`Cc1nn2c(O)c(C(=O)NC3CC3)c(=O)n(CC(C)C)c2c1/C=C/C(=O)N1CCC[C@H]1c1cccnc1` [Synthesis Example 633, (S,E)-N-Cyclopropyl-7-hydroxy-4-isobutyl-2-methyl-5-oxo-3-(3-oxo-3-(2-(pyridin-3-yl)pyrrolidin-1-yl)prop-1-en-1-yl)-4,5-dihydropyrazolo[1,5-a]pyrimidine-6-carboxamide] and `Cc1nn2c(O)c(C(=O)NC3CC3)c(=O)n(CC(C)C)c2c1/C=C/C(=O)N1CCC[C@@H]1c1ccccn1` [Synthesis Example 635, (R,E)-N-Cyclopropyl-7-hydroxy-4-isobutyl-2-methyl-5-oxo-3-(3-oxo-3-(2-(pyridin-2-yl)pyrrolidin-1-yl)prop-1-en-1-yl)-4,5-dihydropyrazolo[1,5-a]pyrimidine-6-carboxamide] are within 1.5-fold of each other in IC50: 0.91 nM for the first, 1.08 nM for the second.

`Cc1nn2c(O)c(C(=O)NC3CC3)c(=O)n(CC(C)C)c2c1/C=C/C(=O)N(C)Cc1cnccn1` [Synthesis Example 636, (E)-N-Cyclopropyl-7-hydroxy-4-isobutyl-2-methyl-3-(3-(methyl(pyrazin-2-ylmethyl)amino)-3-oxoprop-1-en-1-yl)-5-oxo-4,5-dihydropyrazolo[1,5-a]pyrimidine-6-carboxamide] and `Cc1nn2c(O)c(C(=O)NC3CC3)c(=O)n(CC(C)C)c2c1/C=C/C(=O)N(C)Cc1ccccn1` [Synthesis Example 638, (E)-N-Cyclopropyl-7-hydroxy-4-isobutyl-2-methyl-3-(3-(methyl(pyridin-2-ylmethyl)amino)-3-oxoprop-1-en-1-yl)-5-oxo-4,5-dihydropyrazolo[1,5-a]pyrimidine-6-carboxamide] are within 1.5-fold of each other in IC50: 1.47 nM for the first, 1.05 nM for the second.

`Cc1nn2c(O)c(C(=O)NC3CC3)c(=O)n(CC(C)C)c2c1/C=C/C(=O)N(C)Cc1cccnc1` [Synthesis Example 637, (E)-N-Cyclopropyl-7-hydroxy-4-isobutyl-2-methyl-3-(3-(methyl(pyridin-3-ylmethyl)amino)-3-oxoprop-1-en-1-yl)-5-oxo-4,5-dihydropyrazolo[1,5-a]pyrimidine-6-carboxamide] and `Cc1nn2c(O)c(C(=O)NC3CC3)c(=O)n(CC(C)C)c2c1/C=C/C(=O)N(C)Cc1ccn(C)n1` [Synthesis Example 639, (E)-N-Cyclopropyl-7-hydroxy-4-isobutyl-2-methyl-3-(3-(methyl((1-methyl-1H-pyrazol-3-yl)methyl)amino)-3-oxoprop-1-en-1-yl)-5-oxo-4,5-dihydropyrazolo[1,5-a]pyrimidine-6-carboxamide] are within 1.5-fold of each other in IC50: 0.89 nM for the first, 1.06 nM for the second.

`Cc1nn2c(O)c(C(=O)NC3CC3)c(=O)n(CC(C)C)c2c1/C=C/C(=O)N1[C@H](C)COC[C@@H]1C` [Synthesis Example 641, N-Cyclopropyl-3-((E)-3-(cis-3,5-dimethylmorpholino)-3-oxoprop-1-en-1-yl)-7-hydroxy-4-isobutyl-2-methyl-5-oxo-4,5-dihydropyrazolo[1,5-a]pyrimidine-6-carboxamide] and `Cc1nn2c(O)c(C(=O)NC3CC3)c(=O)n(CC(C)C)c2c1/C=C/C(=O)N1C[C@@H](C)OC[C@H]1C` [Synthesis Example 644, N-Cyclopropyl-3-((E)-3-((2R,5R)-2,5-dimethylmorpholino)-3-oxoprop-1-en-1-yl)-7-hydroxy-4-isobutyl-2-methyl-5-oxo-4,5-dihydropyrazolo[1,5-a]pyrimidine-6-carboxamide] are within 1.5-fold of each other in IC50: 0.89 nM for the first, 0.91 nM for the second.

`Cc1nn2c(O)c(C(=O)NC3CC3)c(=O)n(CC(C)C)c2c1/C=C/C(=O)N1CCOC[C@H]1c1ccccc1` [Synthesis Example 642, (R,E)-N-Cyclopropyl-7-hydroxy-4-isobutyl-2-methyl-5-oxo-3-(3-oxo-3-(3-phenylmorpholino)prop-1-en-1-yl)-4,5-dihydropyrazolo[1,5-a]pyrimidine-6-carboxamide] and `Cc1nn2c(O)c(C(=O)NC3CC3)c(=O)n(CC(C)C)c2c1/C=C/C(=O)N1CCOC[C@@H]1c1ccccc1` [Synthesis Example 643, (S,E)-N-Cyclopropyl-7-hydroxy-4-isobutyl-2-methyl-5-oxo-3-(3-oxo-3-(3-phenylmorpholino)prop-1-en-1-yl)-4,5-dihydropyrazolo[1,5-a]pyrimidine-6-carboxamide] are within 1.5-fold of each other in IC50: 0.94 nM for the first, 1.37 nM for the second.

`Cc1nn2c(O)c(C(=O)NC3CC3)c(=O)n(CC(C)C)c2c1/C=C/C(=O)N1C[C@H](C)OC[C@@H]1C` [Synthesis Example 645, N-Cyclopropyl-3-((E)-3-((2S,5S)-2,5-dimethylmorpholino)-3-oxoprop-1-en-1-yl)-7-hydroxy-4-isobutyl-2-methyl-5-oxo-4,5-dihydropyrazolo[1,5-a]pyrimidine-6-carboxamide] and `Cc1nn2c(O)c(C(=O)NC3CC3)c(=O)n(CC(C)C)c2c1/C=C/C(=O)N1C[C@H](C)OC[C@H]1C` [Synthesis Example 646, N-Cyclopropyl-3-((E)-3-((2S,5R)-2,5-dimethylmorpholino)-3-oxoprop-1-en-1-yl)-7-hydroxy-4-isobutyl-2-methyl-5-oxo-4,5-dihydropyrazolo[1,5-a]pyrimidine-6-carboxamide] are within 1.5-fold of each other in IC50: 0.8 nM for the first, 0.87 nM for the second.

`Cc1nn2c(O)c(C(=O)NC3CC3)c(=O)n(CC(C)C)c2c1/C=C/C(=O)N1C[C@@H](C)OC[C@@H]1C` [Synthesis Example 647, N-Cyclopropyl-3-((E)-3-((2R,5S)-2,5-dimethylmorpholino)-3-oxoprop-1-en-1-yl)-7-hydroxy-4-isobutyl-2-methyl-5-oxo-4,5-dihydropyrazolo[1,5-a]pyrimidine-6-carboxamide] and `Cc1nn2c(O)c(C(=O)NC3CC3)c(=O)n(CC(C)C)c2c1/C=C/C(=O)N1CC2CCC(C1)C2(F)F` [Synthesis Example 651, (E)-N-Cyclopropyl-3-(3-(8,8-difluoro-3-azabicyclo[3.2.1]octan-3-yl)-3-oxoprop-1-en-1-yl)-7-hydroxy-4-isobutyl-2-methyl-5-oxo-4,5-dihydropyrazolo[1,5-a]pyrimidine-6-carboxamide] are within 1.5-fold of each other in IC50: 0.81 nM for the first, 1.19 nM for the second.

`Cc1nn2c(O)c(C(=O)NC3CC3)c(=O)n(CC(C)C)c2c1/C=C/C(=O)N1C2CCC1CC(F)(F)C2` [Synthesis Example 650, (E)-N-Cyclopropyl-3-(3-(3,3-difluoro-8-azabicyclo[3.2.1]octan-8-yl)-3-oxoprop-1-en-1-yl)-7-hydroxy-4-isobutyl-2-methyl-5-oxo-4,5-dihydropyrazolo[1,5-a]pyrimidine-6-carboxamide] gave an IC50 of 0.95 nM.
